Results as given in patent US20240309014A1, “MACROCYCLIC COMPOUNDS AND USES THEREOF” (President and Fellows of Harvard College, priority 2017, published 2024).

Experiments:
[1] = tested on: B-16 melanoma cells; details: among natural Halichondrin compounds; cited from earlier work
[2] = tested on: HCCl806 subcutaneous xenograft; assay: Antitumor activity against HCC1806 subcutaneous xenograft as monotherapy; type: in vivo, nude mice; details: 0.18 mg/kg i.v., Q7Dx2
Experimental: A human breast cancer cell line HCCl806, which had been cultured in an RPMI-1640 medium containing 10% FBS, and penicillin and streptomycin, was adjusted to a concentration of 1×10^8 cells/mL with PBS to prepare a cell suspension, and the suspension was mixed with Matrigel™ (BD Bioscience, #366237) in a ratio of 1:1 to prepare a cell suspension in a concentration of 5×10^7 cell/mL. The cell suspension was inoculated in a volume of 100 μL into a subcutaneous part of a right flank of nude mice, 5 weeks of ages (CAnN.Cg-Foxnlnu/CrlCrlj, female, Charles River Laboratories Japan, Inc.). Twelve days after cell inoculation, the shortest diameter and the longest diameter of a tumor in each mouse were measured by using an electronic digital caliper (Digimatic™ caliper, Mitutoyo Corporation), so as to calculate the volume of the tumor in accordance with the following calculation formulae: […]
On the basis of the volumes of tumors obtained on the first day of administration, the mice were grouped such that averages of the tumor volumes were substantially equal among the groups. The experiment was conducted on groups each consisting of 6 mice. Test compound was dissolved in saline and intravenously administered at 0.18 mg/kg once a week for 2 weeks (Q7Dx2 schedule).

[3] = tested on: KPL-4 subcutaneous xenograft; assay: KPL-4 subcutaneous xenograft model in combination with trastuzumab; type: in vivo, nude mice
Experimental: A human HER-2 positive breast cancer cell line KPL-4, which had been cultured in an RPMI-1640 medium containing 10% FBS, and penicillin and streptomycin, was adjusted to a concentration of 1×10^8 cells/mL with Hank's Balanced Salt Solution to prepare a cell suspension. The cell suspension was inoculated in a volume of 100 μL into a subcutaneous part of a right flank of nude mice, 7 weeks of ages (CAnN.Cg-Foxnlnu/CrlCrlj, female, Charles River Laboratories Japan, Inc.). Sixteen days after the cell inoculation, the shortest diameter and the longest diameter of a tumor in each mouse were measured by using an electronic digital caliper (Digimatic™ caliper, Mitutoyo Corporation), so as to calculate the volume of the tumor in accordance with the following calculation formulae: […]
On the basis of the volumes of tumors obtained on the first day of administration, the mice were grouped such that averages of the tumor volumes were substantially equal among the groups. The experiment was conducted on groups each consisting of 6 mice. Each test compound was dissolved in DMSO and a solution was stored at the freezer before use. Immediately before the administration, the stock solution was diluted in saline.

[4] = tested on: human fibrosarcoma cell line HT-1080 xenograft; assay: HT-1080 xenograft as monotherapy (FIG. 17); type: in vivo, athymic mice; details: 180 μg/kg i.v. Day 1 and Day 8
Experimental: A human fibrosarcoma cell line HT-1080, which had been cultured in an E-MEM containing 10% FBS, NEAA and antibiotics was adjusted to a concentration of 3×10^7 cells/mL with medium to prepare a cell suspension. The cell suspension was inoculated in a volume of 100 μL into a subcutaneous part of a right flank of athymic mice (CAnN.Cg-Foxnlnu/CrlCrlj, female, 6 weeks old, Charles River Japan Inc.). Six days after cell inoculation (Day 1), the length and the width of a tumor in each mouse were measured by using an electronic digital caliper (Mitutoyo Corporation), so as to calculate the volume of the tumor in accordance with the following calculation formula: […]
On the basis of TV, the mice were randomly grouped (Day 1). Each group was consisted in six mice. Compound (1) was dissolved in DMSO and a solution was stored in the freezer before use. Compound (1) (180 μg/kg) was diluted with saline and intravenously injected on Day 1 and Day 8.

[5] = tested on: human endometrial cancer cell line HEC-108 xenograft; assay: HEC-108 endometrial cancer xenograft as monotherapy (FIG. 18); type: in vivo, athymic mice; details: 180 μg/kg i.v. Day 1 and Day 8
Experimental: A human endometrial cancer cell line HEC-108, which had been cultured in an E-MEM containing 15% FBS and antibiotics were adjusted to a concentration of 7.14×10^7 cells/mL with medium to prepare a cell suspension. The cell suspension was inoculated in a volume of 150 μL into a subcutaneous part of a right flank of athymic mice (CAnN.Cg-Foxnlnu/CrlCrlj, female, 6 weeks old, Charles River Japan Inc.). Thirteen days after cell inoculation (Day 1), the length and the width of a tumor in each mouse were measured by using an electronic digital caliper (Mitutoyo Corporation), so as to calculate the volume of the tumor in accordance with the following calculation formula: […]
On the basis of TV, the mice were randomly grouped (Day 1). Each group was consisted in six mice. Compound (1) was dissolved in DMSO and a solution was stored in the freezer before use. Compound (1) (180 μg/kg) was diluted in saline and intravenously injected on Day 1 and Day 8.

[6] = tested on: human duodenal cell line HuTu 80 xenograft; assay: HuTu 80 xenograft model as monotherapy (FIG. 23); type: in vivo, nude mice
Experimental: A human duodenal cell line HuTu 80, which had been cultured in a EMEM containing 10% FBS, and penicillin-streptomycin, was adjusted to a concentration of 3×10^7 cells/mL in PBS to prepare a cell suspension. The cell suspension was inoculated in a volume of 100 μL into a subcutaneous part of a right flank of nude mice, 7 weeks of ages (CAnN.Cg-Foxnlnu/CrlCrlj, female, Charles River Laboratories Japan Inc.). Seven days after cell inoculation (Day 1), the shortest diameter and the longest diameter of a tumor in each mouse were measured by using an electronic digital caliper (Digimatic™ caliper, Mitutoyo Corporation), so as to calculate the volume of the tumor in accordance with the following calculation formulae: […]
On the basis of the volumes of tumors obtained on Day 1, the mice were grouped such that averages of the tumor volumes were substantially equal among the groups. The experiment was conducted on groups each consisting of six mice. Compound (1) was dissolved in DMSO and a solution was stored in the freezer before use. Immediately before the administration, the stock solution was diluted with saline. The test compound in saline was intravenously once-weekly administered at 45, 90, or 180 μg/kg for 2 weeks (on Day 1 and Day 8).

Compound | anti-tumor activities against B-16 melanoma cells in vitro [1] | Tumor Regression (%) [2] | Tumor Regression (%) ([3]; 0.09 mg/kg i.v. + trastuzumab 10 mg/kg) | Tumor Regression (%) ([3]; 0.09 mg/kg i.v., without trastuzumab) | Tumor Regression (%) ([3]; 0.18 mg/kg i.v. + trastuzumab 10 mg/kg) | Tumor Regression (%) ([3]; 0.18 mg/kg i.v., without trastuzumab) | antitumor activity [4] | antitumor activity [5] | Tumor Regression (%) ([6]; 0.18 mg/kg i.v. Day 1 and Day 8) | antitumor effect ([6]; 180 μg/kg i.v. Day 1 and Day 8) | antitumor effect ([6]; 45 and 90 μg/kg i.v. Day 1 and Day 8)
C=C1C[C@@H]2CC[C@@]34C[C@H]5O[C@H]6[C@@H](O3)[C@H]3O[C@H](CC[C@@H]3O[C@H]6[C@H]5O4)CC(=O)O[C@@H]3[C@@H](C)[C@@H]4O[C@@H]5C[C@]6(C[C@@H]7O[C@]8(C[C@H](C)[C@@H]9O[C@H]([C@@H](O)C[C@@H](O)CO)C[C@@H]9O8)C[C@H](C)[C@@H]7O6)O[C@@H]5C[C@@H]4O[C@H]3C[C@H]3O[C@@H](CC[C@@H]1O2)C[C@@H](C)C3=C [Halichondrin B, reference compound] | strongest anti-tumor activities |  |  |  |  |  |  |  |  |  | 
C=C1C[C@@H]2CC[C@@]34C[C@H]5O[C@H]6[C@@H](O3)[C@H]3O[C@H](CC[C@@H]3O[C@H]6C5O4)CC(=O)O[C@@H]3[C@@H](C)[C@@H]4O[C@@H]5C[C@]6(C[C@@H]7O[C@]8(C[C@H](C)[C@@H]9O[C@H](CN)[C@H](O)C[C@@H]9O8)C[C@H](C)[C@@H]7O6)O[C@@H]5C[C@@H]4O[C@H]3C[C@H]3O[C@@H](CC[C@@H]1O2)C[C@@H](C)C3=C (stereo in doubt) [Compound (1)] |  | 90% | 83% | 43% | 100% | 87% | tumor regression | tumor growth delay | 99% | tumor regression | tumor growth delay
